The text below walks through data of article PMC9166630, “SAR Probing of KX2-391 Provided Analogues With Juxtaposed Activity Profile Against Major Oncogenic Kinases” (Frontiers in Oncology, 2022).

One experiment concerns purified bovine tubulin. The experiment can be described thus: Tubulin polymerization assay (turbidimetric). Type of experiment: biochemical. The note with it: theoretical concentration 10 µM, OD 340 nm, 60 min. As for the experimental part: The effect of compound 4e on tubulin polymerization was investigated using the cell-free assay which assesses the assembly of purified bovine tubulin by a turbidometric method (Figure 5). Tubulin polymerization results in increased turbidity, which is measured as an increase in the optical density (OD).
Figure 5 Tubulin polymerization assay for compound 4e at 10 µM compared to paclitaxel (10 µM) and KX2-391 (10 µM) as references, while DMSO (1% v/v) was used as a vehicle control. Purified bovine tubulin and GTP were mixed in a 96-well plate. The polymerization reaction was initiated by warming the solution from 4°C to 37°C. The effect on tubulin assembly was monitored by measuring the optical density (OD) at 340 nm every 30 seconds over 60 min period. The results represent the mean for three separate experiments.
The assembly of purified bovine tubulin was monitored using the Tubulin Polymerization Assay kit, BK006 (Cytoskeleton Inc., Denver, CO, USA). The assay was carried out in accordance with the manufacturer’s instructions in the assay kit manual using the standard assay conditions. The values reported represent the average values from two independent assays. […] Therefore, tubulin assembly was monitored turbidimetrically at 340 nm at 37°C in a Spectramax 340 PC spectrophotometer (Molecular Devices, Sunnyvale, CA, USA). The absorbance was measured at 30 s intervals for 60 min.

A further experiment concerns Etk/BMX. Description: PamChip tyrosine kinase microarray, Etk/BMX. Type of experiment: biochemical, human. To be noted: 4e 0.1 µM, HL60 lysate. Here is the method: (§1) The changes in kinase activities induced by treatment with 4e were monitored within the HL60 cell lines using PamGene’s (Hertogenbosch, Netherlands) PamChip® peptide microarray profiler, which quantifies the activities of 144 tyrosine kinases (YK) ([29], [30]) (Figure 7). Results are provided as a log fold change (LFC) heatmap and Mean Kinase Statistic. From the LFC it is apparent that compound 4e, at a concentration of 0.1 µM, induced sizable changes to the activity of several kinases within the cell signaling YK profile (Figure 7A).
(§2) An Upstream Kinase tool was used to generate a putative list of kinases responsible for phosphorylating the phospho-sites on the PamChip (Figure 7B) ([31]). It is an interpretation and is highly dependent on the contents of the underlying phosphorylation databases. A Kinase Score was used for ranking kinases based on their significance and specificity in terms of the set of peptides used for the corresponding kinase. Kinase Statistics indicates the overall change of the peptide set that represents the kinase. Kinase statistics value <0 indicates lower kinase activity in the compound spiked lysate and vice versa ([32], [33]). Table 5 lists the 20 most changed kinases within treated HL60 cell lysates by 0.1 μM 4e, ranked according to their Kinase Score.
(§3) The compound 4e was spiked into HL60 cell lysate at different concentrations (0.001, 0.01, 0.1, 1, 10 and 50 μM). In addition, DMSO was also spiked in HL60 lysate at low concentration (2% v/v) as control. Samples were profiled on PamGene’s Tyrosine Kinase (PTK) arrays in technical replicates, covering a total of 196 phosphorylation sites. Frozen HL60 cultured cell pellet was sent to PamGene. At PamGene, cells were lysed using a lysis buffer and proteases inhibitors cocktail. Protein concentration was measured using standard Bradford assay as per PamGene SOPs. These lysates were further used for generating the PTK activity profiles. For spiking, 4e was received as powder form and dissolved in DMSO at PamGene facility followed by storing at -20°C in small aliquots. PamGene used its in-house bioinformatics toolbox in combination with other methods to generate hypotheses of signaling pathways.

A further experiment has as its system CTK. Description: PamChip tyrosine kinase microarray, CTK. Type of experiment: biochemical, human. The note with it: 4e 0.1 µM, HL60 lysate. Here is the method:
as §1, §2, §3

The subject of the next experiment is Blk. The experiment can be described thus: PamChip tyrosine kinase microarray, Blk. The experiment is classed as biochemical, human. To be noted: 4e 0.1 µM, HL60 lysate. As for the experimental part:
as §1, §2
The two multiple-kinase tests (PamChip and Phosphokinase Profiler) provided strong evidence of very minor involvement of Src in the cellular activities of 4e. However, the question must be raised about the effect of the 4e on other SRC family kinase (SFK). To address this point, we must highlight that both R&D phosphokinase profiler and PamChip feature Yes, Fgr, Lyn, Lck and Src while Fyn, Hck, Blk and Frk activities are tested in the PamChip only. The signals of SFKs in the R&D Phosphokinase Profiler were too weak to detect in both untreated (control) and 4e-treated HL60 cells. In PamChip assay, most of SFK’s were not ranked in the top 20 affected kinases (Table 5). In addition, their Specificity Score were very low (Table 6) indicating their marginal importance to the cell killing activities of 4e. Fgr kinase which ranked 7th in the list (Table 5) was the only SFK member that seems to be affected by the compound, albeit with low Specificity Score (1.03).
The compound 4e was spiked into HL60 cell lysate at different concentrations (0.001, 0.01, 0.1, 1, 10 and 50 μM). In addition, DMSO was also spiked in HL60 lysate at low concentration (2% v/v) as control. Samples were profiled on PamGene’s Tyrosine Kinase (PTK) arrays in technical replicates, covering a total of 196 phosphorylation sites. Frozen HL60 cultured cell pellet was sent to PamGene. […] Protein concentration was measured using standard Bradford assay as per PamGene SOPs. […]

With `O=C(Cc1ccc(NC(=O)c2cccc(Cl)c2)cc1)NCc1ccccc1` [Compound 4e, N-(4-(2-(benzylamino)-2-oxoethyl)phenyl)-3-chlorobenzamide], in the experiment on purified bovine tubulin, the “effect on tubulin polymerization” value was “did not affect the tubulin polymerization”. In the experiment with Etk/BMX, the “Mean Final Score” value is recorded as 1.7640, the “Mean Kinase Statistic” value was -0.5143, the “Mean Significance Score” value was 1.3079 and the “Mean Specificity Score” value turned out to be 0.4561. Besides, in the experiment with CTK, the “Mean Final Score” value stood at 1.5802, the “Mean Kinase Statistic” value was -0.4874, the “Mean Significance Score” value was 1.1881 and the “Mean Specificity Score” value is listed as 0.3920. In the experiment with Blk, the “Mean Final Score” value worked out at 0.7362, the “Mean Kinase Statistic” value is listed as -0.3552, the “Mean Significance Score” value came to 0.6625 and the “Mean Specificity Score” value came out at 0.0736.
